Source: EP1234575A1, “Furan fatty acids for improving the efficiency of cytostatic and/or radiation therapy” (Deigner, Hans-Peter, Dr., priority 2001, dated 2002)

Columns and labels:
[1] = tested on: Nierenkarzinomzelllinie (RENCA); assay: Apoptosis in RENCA renal carcinoma cells: FFS alone or 2 h FFS pre-incubation followed by a cytostatic (YO-PRO-1 positive cells, DNA laddering); format: cell-based; conditions: for Zahl apoptotischer Zellen bei 50 nM relativ zu 100 nM: 50 nM FFS versus 100 nM FFS, plus Daunorubicin; for Zahl apoptotischer Zellen bei 50 nM relativ zu 100 nM / höhere Anzahl apoptotischer Zellen im Vergleich zur Kontrolle mit Daunorubicin alleine / Konzentrationsabhängigkeit des prozentualen Anteils apoptotischer Zellen: Renca-Zellen; for höhere Anzahl apoptotischer Zellen im Vergleich zur Kontrolle mit Daunorubicin alleine: 1000 nM FFS plus Daunorubicin (1 µM per Figur 3); for Konzentrationsabhängigkeit des prozentualen Anteils apoptotischer Zellen: FFS 0 to 1000 nM plus Daunorubicin
Description: (§1) Untersuchungen der pro- bzw. antiapoptotischen Wirkung der FFS wurden an einer Nierenkarzinomzelllinie (RENCA; Murphy et al., J. Natl. Cancer Inst. 50: 1013, 1973) durchgeführt. Dazu wurden die Zellen 22 Stunden zum einen mit einem Zytostatikum, zum anderen mit der entsprechenden FFS sowie einer Kontrolle und einer Kombination aus FFS und Zytostatikum inkubiert. Für die Substanzkombination aus FFS und Zytostatikum wurden die Zellen zwei Stunden mit der jeweiligen FFS vorinkubiert, anschließend das Zytostatikum zugegeben und danach für 24 Stunden im Brutschrank inkubiert. Die verwendeten Konzentrationen sind in Figur 3 angegeben. Diese Untersuchungen wurden mit den Verbindungen 11a/11b, 12b, 6b, 13b und 14 sowie jeweils für jedes Zytostatikum getrennt durchgeführt. Es zeigte sich bei keiner der getesteten FFS (alleinige Zugabe) eine signifikante Zunahme der Zahl apoptotischer Zellen gegenüber der Kontrolle. Bei Inkubation der Zellen mit einer FFS und anschließender Zytostatikumgabe konnten unterschiedliche Effekte beobachtet werden .
Bei den alkin-substituierten FFS wurde bei Verwendung von Daunorubicin in Kombination mit 11a eine Zunahme von 60% und in Kombination mit 11b eine Abnahme der Anzahl apoptotischer Zellen gemessen. Bei Verwendung von Vinblastin als Zytostatikum nahm bei beiden FFS 11a und 11b die Zahl apoptotischer Zellen von 60% bzw. 160% zu.
(§2) Da die FFS 11a und 11b als einzige aller synthetisierten FFS eine signifikante Zunahme an apoptotischen Zellen bei Inkubation in Kombination mit einem Zytostatikum zeigten, wurde untersucht, ob dieser Effekt von der Konzentration der FFS abhängt. Daher wurde das oben beschriebene Experiment an Renca-Zellen unter den gleichen Bedingungen, aber mit jeweils verschiedenen Konzentrationen von 11a bzw. 11b im Bereich von 0 bis 1000 nM durchgeführt (Figur 3). […] Der prozentuale Anteil apoptotischer Zellen nahm mit steigender FFS Konzentration zu und mit fallender ab. Bei Inkubation mit einer 1000 nM-Lösung wurde eine 6.1 bzw. 5.2-fach höhere Anzahl apoptotischer Zellen im Vergleich zur Kontrolle mit Daunorubicin alleine festgestellt. […] Bei Inkubation der Zellen mit FFS ohne Zytostatikum wurden auch bei hoher FFS Konzentration keine signifikante Zu- bzw. Abnahme der Apoptoserate festgestellt. Die Apoptoserate wurde routinemäßig durch Messung YO-PRO-1 positiver Zellen^5,6 DNA-Leiter-Untersuchungen ("DNA-laddering") ermittelt.

Morris-Hepatom = assay: Apoptosis in Morris hepatoma cells: FFS alone or FFS pre-incubation followed by a cytostatic; format: cell-based, Ratte
Description: as §1
Aufgrund dieser Effekte wurde mit den alkin-substituierten FFS 11a und 11b an einer weiteren Karzinomzelllinie (Morris-Hepatom; Tumorbank DKFZ Heidelberg, TZB No. 620143, MH TC 5123, histologischer Typ: Hepatom, Herkunft/Spezies: Ratte, Buffalo) die oben beschriebenen Untersuchungen durchgeführt. Die Konzentrationen der verwendeten FFS bzw. Zytostatika sind in Figur 4 angegeben. FFS alleine zeigten auch hier keine Effekte. Bei einer Kombination aus Daunorubicin mit der FFS 11a bzw. 11b stieg die Zahl apoptotischer Zellen um 130% bzw. 60% und bei einer Kombination FFS 11a bzw. 11b mit Vinblastin um 85% bzw. 50% .
as §2

[2] = 2 h FFS pre-incubation, then Daunorubicin, 24 h, RENCA
[3] = 2 h FFS pre-incubation, then Vinblastin, 24 h, RENCA

SMILES | Anzahl apoptotischer Zellen (change, in words) [1, 2] | Anzahl apoptotischer Zellen (change, in words) [1, 3] | Zahl apoptotischer Zellen bei 50 nM relativ zu 100 nM [1] | höhere Anzahl apoptotischer Zellen im Vergleich zur Kontrolle mit Daunorubicin alleine [1] [fach] | Zunahme der Zahl apoptotischer Zellen [1, 3] [%] | Konzentrationsabhängigkeit des prozentualen Anteils apoptotischer Zellen [1] | Anstieg der Zahl apoptotischer Zellen (Morris-Hepatom; FFS combined with Daunorubicin) [%] | Anstieg der Zahl apoptotischer Zellen (Morris-Hepatom; FFS combined with Vinblastin) [%] | Zunahme der Anzahl apoptotischer Zellen [1, 2] [%]
CCC(=O)CCc1ccc(CCCCCCCCCCC(=O)OC)o1 [13b, 11-[5(3-Oxo-pentyl)-furan-2-yl]-undecansäure-methylester] | leichter Rückgang | leichter Rückgang | – | – | – | – | – | – | –
CCC(=O)/C=C/c1ccc(/C=C\CCCCCCCCC(=O)OC)o1 [12b] | leichter Rückgang | leichter Rückgang | – | – | – | – | – | – | –
CCC(=O)/C=C/c1ccc(C#CCCCCCCCCC(=O)OC)o1 [11b, 11-[5-(3-Oxo-1-pentenyl)-furan-2-yl]-10-undecinsäure-methylester] | Abnahme | – | ca. halb so groß | 5.2 | 160 | deutliche Konzentrationsabhängigkeit | 60 | 50 | –
COC(=O)CCCCCCCCC#Cc1ccc(/C=C/C(C)=O)o1 [11a, 11-[5-(3-Oxo-1-butenyl)-furan-2-yl]-10-undecinsäuremethylester] | – | – | ca. halb so groß | 6.1 | 60 | deutliche Konzentrationsabhängigkeit | 130 | 85 | 60
CCC(=O)/C=C/c1ccc(CCCCCCCCCCC(=O)OC)o1 [6b, 11-[5(3-Oxo-pentenyl)-furan-2-yl]-undecansäure-methylester] | leichter Rückgang | leichter Rückgang | – | – | – | – | – | – | –
